System: C57BL mice, shaved dorsal area (hair growth)
Assay: Hair growth stimulatory effect measurement test in shaved mouse model
Type: in vivo
Procedure: Hair Growth Stimulatory Effect Measurement Test in Shaved Mouse Model
Dorsal hair of each of C57BL mice (female, about 7-week old) was shaved, and 200 μL of each of test compounds (90 mM) dissolved into 99% ethanol was applied to the shaved area once a day for 40 days from the day 3 after the shaving. As the evaluated compounds, the compound of the present invention and the compound (GPI-1511) disclosed in International Publication No. WO98/55090 were used. As a control, a group in which 200 μL of the vehicle was applied was used.
A hair growth state of the shaved area of each of 10 to 12 mice of each group was rated every 2 or 3 days after the start of administration by using the following hair growth score criteria.
(Hair Growth Score Criteria)
2=hair growth in less than 30% of shaved area
3=hair growth in 30% or more and less than 60% of shaved area
4=hair growth in 60% or more and less than 90% of shaved area
5=hair growth in 90% or more of shaved area

Compound: COc1ccc(OCc2nc([C@@H]3CCCN3C(=O)C(F)(F)C3(O)CC(C)(C)CC(C)(C)C3)no2)cc1OC [compound of the present invention, 1-[2-((2S)-2-{5-[(3,4-dimethoxyphenoxy)methyl]-1,2,4-oxadiazol-3-yl}pyrrolidin-1-yl)-1,1-difluoro-2-oxoethyl]-3,3,5,5-tetramethylcyclohexanol]
- increase in hair growth score from the day 19 of the administration (18 μmol topical once a day, from day 19 of administration): remarkable
- hair growth score compared to the group with GPI-1511 (18 μmol topical once a day, over the whole test period): higher than that of the group with GPI-1511 over the whole test period
- hair growth score compared to the vehicle (control) group (female, 18 μmol (200 μL of 90 mM in 99% ethanol) applied to the shaved area once a day for 40 days, score 1-5, FIG. 1): an increase in hair growth score was exhibited from an early stage
